1 compound from US20250186439A1, “PYK2 INHIBITION MODULATES IMMUNE CELL FUNCTION” (The Children's Medical Center Corporation, priority 2022, published 2025) can be followed below.

What all share (format): cell-based, mouse
Test [1] has as its system MG6 cells. The test can be described thus: Phagocytosis of pHrodo Red E. coli BioParticles by MG6 cells (confocal, IMARIS spot analysis). As to conditions: 1000 nM, 24 h. How it is done: FIGS. 5A-5D. Characteristics of Pyk2 inhibition on phagocytotic activity in microglia. FIG. 5A: Immunofluorescent imaging depicting phagocytosis of pHrodo Red E. coli BioParticles by MG6 cells after exposure to Pyk2 inhibitors. MG6 cells were either untreated (left) or treated with 1000 nM Pyk2 inhibitor treatment for 24 hours (right). Immunofluorescent images were obtained via confocal microscopy (×600). MG6 cells were fixed and stained with phalloidin-AlexaFluor488 to visualize actin, and with DAPI to visualize nuclei (encircled). Scale bar is 20 μm. […] FIG. 5B: Immunofluorescent imaging depicting phagocytosis of pHrodo Red E. coli BioParticles by mononucleated and multinucleated MG6 cells after exposure to Pyk2 inhibitors. MG6 cells were treated and imaged as in FIG. 5A. After obtaining three-dimensional images, BioParticles are quantified by a spot analysis using IMARIS software (bottom figures). FIG. 5C: Quantification of spot analysis in FIG. 5B. The output of IMARIS spot analysis was analyzed using one-way ANOVA. […] FIG. 5D: Phagocytotic activity for Aβ in MG6 cells. Immunostaining for Iba1 and Aβ in control and Pyk2 inhibitor treated group. MG6 cells were treated with Pyk2 inhibitor or vehicle for 24 hours and then Hilite-555 labelled Aβ42 was added for 24 hours. Data are representative images of four wells from three independent experiments. A 20 μm scale bar is in the bottom-left corner.
To assess whether or not Pyk2 inhibitor treated, multinuclear MG6 cells were also more phagocytic, treated MG6 cells were subsequently exposed to pHrodo Red E. coli BioParticles (Thermo Fisher Scientific #P35360), a fluorogenic phagocytic substrate derived from Escherichia coli. […] To assess if there was any difference in the phagocytosis of mononucleated and multinucleated MG6 cells, treated cells were assessed via confocal microscopy to generate three-dimensional images of phagocytosed particles, which were then quantified using IMARIS cell imaging software (FIG. 5B).

For test [2], the system named is MG6 cells. The test can be described thus: Proliferation of FACS-sorted mono-/multinuclear MG6 cells. As to conditions: 1000 nM, 24 h pretreatment. How it is done: FIGS. 7A-7D. Pyk2 inhibition promotes the phagocytotic activity and inflammatory responses in microglia. FIG. 7A: Quantification of the effect of Pyk2 inhibitor treatment on proliferation of mononucleated and multinucleated MG6 cells. MG6 cells were pretreated with 1000 nM Pyk2 inhibitor for 24 hours and mono-/multi-nuclear cells were isolated and collected by fluorescent activated cell sorting. […] There is no difference in proliferation of mononuclear cells after Pyk2 inhibitor treatment compared to untreated control cells. FIG. 7B: Fluorescent imaging depicting the effect of Pyk2 inhibitor on phagocytosis of mononucleated and multinucleated MG6 cells. […] FIG. 7C: Quantification of phagocytosis of mononucleated and multinucleated MG6 cells over time. […] Fluorescence intensity was measured by fluorescence microplate reader at excitation/emission wavelengths of 560/580 nm. […] FIG. 7D: Quantification of the effect of Pyk2 inhibitor treatment on cytokine/chemokine levels of mononucleated and multinucleated MG6 cells. The relative mRNA levels of IL-6, IL-1β, IL-10, and TGF-β were measured by a real-time PCR (qPCR). Measured mRNA transcript levels are reported as the mean level±standard deviation (n=3; *: p-value<0.05; **: p-value <0.01; ***: p-value <0.005; ****: p-value <0.001; and *****: p-value <0.0005). […]

Test [3] relates to MG6 cells. The test can be described thus: Multinucleation of MG6 microglia (DAPI, Iba1 staining). How it is done:
FIGS. 4A-4E. Induction of multinucleated cells by a Pyk2 inhibitor. FIG. 4A: Microscopic images depicting the effect of a Pyk2 inhibitor on the morphology of MG6 cells. MG6 cell line is established with neonatal C57BL/6 mouse microglia that are collected from whole brain and transformed with c-myc oncogene. MG6 cells were stimulated with 100 ng/mL CSF-1 for 48 hours and then cultured for 24 hours with various concentrations of Pyk2 inhibitor: 0 nM, 100 nM, 500 nM and 1000 nM. FIG. 4B: Quantification of the effect of a Pyk2 inhibitor on the proliferation of MG6 cells. MG6 cells were stimulated with CSF-1 and cultured with various concentrations of Pyk2 inhibitor as in FIG. 4A. The baseline proliferation rate is defined as 100 ng/mL CSF-1 treatment for 48 hours. Proliferation of MG6 cells with various concertation of Pyk2 inhibitor treatment is measured using a Cell Counter Kit for 4 hours of incubation. No difference in MG6 cell proliferation is observed at the Pyk2 inhibitor concentration of 100 nM. […] FIG. 4C: Microscopic images depicting multinucleated MG6 cells with 24 hours of 1000 nM Pyk2 inhibitor treatment following 48 hours of 100 ng/mL CSF-1 treatment. […] Multinucleated cells with two or more nuclei are observed as marked with circles in the bottom image. FIG. 4D: Quantification of the proportion of multinucleated cells after 0 nM, 500 nM, and 1000 nM Pyk2 inhibitor treatment. MG6 cells were treated with Pyk2 inhibitor for 24 hours after 48 hours of 100 ng/mL CSF-1 treatment. […] FIG. 4E: Immunohistochemical staining depicting multinucleation of Pyk2 inhibitor treated microglia. MG6 cells were stained with anti-Tubulin and anti-Iba1, while nuclei were stained with DAPI. Cells were observed via confocal microscopy (×600). MG6 cells were treated without Pyk2 inhibitor (left) or with 1000 nM Pyk2 inhibitor (right) after 48 hours of 100 ng/mL CSF-1 treatment. Scale bar is 20 μm. […]
To further assess the function of Pyk2 during neurodegenerative disorders, such as AD, the effect of Pyk2 inhibition was assessed in a microglial cell line. […]

Structures are written as SMILES. “Also recorded” adds a separate entry of the source.

For `CN(c1ccccc1CNc1nc(Nc2ccc3c(c2)CC(=O)N3)ncc1C(F)(F)F)S(C)(=O)=O` [PF-431396], in the test with MG6 cells [1], the “phagocytic activity, treated mononuclear and multinuclear microglia combined vs controls” value is “significantly higher”. For the same compound, in the test on MG6 cells [1] (listed as Pyk2 inhibitor), the “phagocytosis of pHrodo Red E. coli BioParticles, mononucleated treated cells vs control” value was “no significant difference” and the “phagocytosis of pHrodo Red E. coli BioParticles, multinucleated treated cells vs control/mononucleated” value is “statistically significant increase; also recorded: significantly higher”. In the test with MG6 cells [2], the “proliferation of sorted mononucleated MG6 cells vs untreated” value is “no difference”. For the same compound, the “proliferation of sorted multinucleated MG6 cells” value in the test on MG6 cells [2] (listed as Pyk2 inhibitor) was “slightly increased; also recorded: increased level”. The “multinucleation of MG6 cells” value with MG6 cells [3] (500 nM, 24 h after 48 h CSF-1) is “insufficient to induce multinucleation”. In addition, the “level of Iba1 in cytoplasm of multinucleated MG6 cells” value with MG6 cells [3] (1000 nM) is given as “increased level”. Besides, in the test with MG6 cells [3] (1000 nM, 24 h after 48 h CSF-1, listed as Pyk2 inhibitor), the “multinucleation of MG6 cells / proportion of multinucleated cells” value is listed as “multinucleation of MG6 cells was observed; also recorded: significantly increased”.
